Experimental data: PMC11019550, “Potent Inhibition of E. coli DXP Synthase by a gem-Diaryl Bisubstrate Analog” (ACS Infectious Diseases, 2024)

Assays:
EcDXPS = molecular target: T1, EcDXPS (Escherichia coli, UniProt P77488); assay: DXPS quaternary structure by native PAGE and analytical gel filtration
T1 construct: made in house
Description: EcDXPS (20 μM) in buffer (2 mM MgCl2, 5 mM NaCl, 1 mM ThDP, 100 mM HEPES pH 8) was preincubated with 8 ([…]) or no inhibitor for 30 min at 25 °C. Samples were then diluted 2-fold with 2× loading dye (100 mM Tris HCl pH 8, 20% glycerol, 200 mM dithiothreitol (DTT), 0.01% bromophenol blue). Samples (15 μL) were then loaded on a 7.5% PAGE gel. Gel electrophoresis was conducted at 4 °C for 30 min at 120 V, followed by 3 h at 150 V. Protein bands were stained with Protostain Blue. Experiments were performed in triplicate.
Analytical gel filtration was performed on an AKTA-GO FPLC system held at 4 °C fitted with a Cytiva Superdex 200 Increase 5/150 GL column. A 200 μL solution containing 29 μM EcDXPS in 25 mM HEPES, pH 8, 100 mM NaCl, 1 mM MgCl2, 1% glycerol, 10 μM ThDP, and 29 μM 8 or no inhibitor was centrifuged at 13,000 rpm for 10 min to remove particulates. The resulting supernatant was loaded into a 10 μL loop attached to the FPLC via gastight syringes. […] DXPS was analyzed by isocratic elution from the column at a flow of 0.15 mL/min with 1.5 column volumes (4.5 mL). The dimer/tetramer ratio was calculated from the peak area (mL mAu) of the dimer (1.7 mL retention) peak divided by the peak area (mL mAu) of the tetramer (1.4 mL retention) peak. […]

WT EcDXPS = molecular target: T2, WT EcDXPS (Escherichia coli, UniProt P77488); assay: Time-dependent inhibition, reaction progress curves on WT EcDXPS; assay type: biochemical; conditions: 8 at 400 or 800 nM, 10 at 1 or 100 μM
T2 construct: made in house
Description: To determine if 8 is also a slow-onset inhibitor of DXPS, reaction progress was monitored upon simultaneous addition of substrates (pyruvate and D-GAP) in the presence or absence of inhibitor. In the absence of inhibitor, the reaction progress curve is linear. […] To assess the importance of the carboxyl group of 8, we evaluated descarboxy analog 10 in the same manner.
EcDXPS (100 nM) and IspC (2 μM) were preincubated in enzyme reaction buffer (100 mM HEPES pH 8, 2 mM MgCl2, 5 mM NaCl, 1 mM ThDP, and 200 μM NADPH) with 250 μM D-GAP for 10 min at 25 °C. The reaction was initiated by the addition of pyruvate (1 mM) and inhibitor (400 nM and 800 nM 8; 1 μM and 100 μM 10). The reaction mixture was incubated at 25 °C, and the absorbance of NADPH at 340 nm was monitored. The change in the absorbance of NADPH over time was used to calculate [DXP] (μM) produced over time. Experiments were performed in triplicate.

R478A EcDXPS = molecular target: T3, R478A EcDXPS (Escherichia coli, UniProt P77488, R478A); assay: Circular dichroism titration (PLThDP formation, apparent KD) on R478A EcDXPS; assay type: binding
T3 construct: made in house
Description: CD titrations of 8 and 10 onto WT, R99A, and R478A EcDXPS variants were conducted at 25 °C under aerobic conditions in 1.5 mL solutions containing 30 μM EcDXPS in 50 mM HEPES pH 8, 100 mM NaCl, 1 mM MgCl2, and 0.2 mM ThDP. Scans were obtained from 280 to 400 nm with a 0.5 s averaging time and 1 nm step following a titration of inhibitor (8: 0.25–30 μM on WT, 0.5–30 μM on R99A and R478A; 10 2.5–30 μM on WT, R99A, and R478A), with a 5 min preincubation of inhibitor with DXPS prior to scanning. […] The CD signals at 294 nm determined from the difference spectra obtained by subtracting the signal of E-ThDP at 294 nm were plotted as a function of [inhibitor] and fit to (1) the quadratic equation described in eq 2 (8 on WT DXPS), where E is the concentration of DXPS taking into account stoichiometric binding and CDmax is the maximal CD signal, or (2) a one-site specific binding curve (all other experiments) using GraphPad Prism Version 9 to calculate an apparent KD. Experiments were conducted in triplicate and the standard error was calculated. [drawing 2] 2
At the conclusion of the titration described above, the CD signal at 313 nm (previously characterized for LThDP) was recorded. Pyruvate (1 mM) was then added to the mixture, and a CD scan of the resulting solution was conducted as described above, to detect shifts in the CD spectrum that may correlate to LThDP formation. Experiments were conducted in triplicate.

EcR99A DXPS = molecular target: T4, EcR99A DXPS (Escherichia coli, UniProt P77488, R99A); assay: Time-dependent inhibition, reaction progress curves on EcR99A; assay type: biochemical; conditions: 8 at 700 nM or 200 μM
T4 construct: made in house
Description: Figure S8. Replicates of reaction progress curves for DXP formation on EcR99A in the presence or absence of 8. Reactions were initiated by simultaneous addition of substrates (780 µM pyruvate and 2400 µΜ D-GAP) in the presence or absence of 8 (700 nM or 200 µM) at 25 °C. Reaction progress was measured using the DXPS-IspC coupled assay. Experiments were performed in […]
Figure S9. Representative CD traces illustrating behavior of the CD signal corresponding to PLThDP formed from 8 on WT and EcDXPS variants. A) CD traces showing lack of a significant shift in CD signal following addition of pyruvate (1 mM, red trace) to E-PLThDP formed from 8 (blue trace) on WT B) Observed shift toward a LThDP-like CD signal following addition EcDXPS. of pyruvate to E-PLThDP formed from 8 on EcR99A DXPS. C) Observed shift toward a LThDP-like CD signal following addition of pyruvate to E-PLThDP formed from 8 on EcR478A DXPS. […]

Compound: CC(=O)P(=O)(O)OCCc1cn(C(Cc2ccccc2)(Cc2ccccc2)C(=O)O)nn1 [Compound 8]
- effect on dimer/tetramer ratio (analytical gel filtration) (EcDXPS; 29 μM EcDXPS, 29 μM 8): small but statistically significant decrease in the dimer/tetramer ratio
- effect on EcDXPS oligomeric state (native PAGE) (EcDXPS; EcDXPS 20 μM, incubation with 8): induce the formation of higher-order enzyme oligomers
- time dependence of inhibition (progress curve for DXP formation) (WT EcDXPS): time dependence of inhibition
- Kd (R478A EcDXPS): 11 ± 4 µM
- change in PLThDP CD signal upon addition of pyruvate (R478A EcDXPS; R478A-PLThDP complex): shift in the CD profile toward the characteristic LThDP signal
- time dependence of inhibition (progress curve for DXP formation) (EcR99A DXPS): loss of time-dependent behavior
